Measurements: ChEMBL document CHEMBL1201861, “Genomics of Drug Sensitity in Cancer screening data, Wellcome Trust Sanger Institute”

tested on: TK-10; assay: cells; type: functional, cell-based, Homo sapiens; conditions: Homo sapiens, TK-10;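 further: growth inhibition of TK-10 cells, read out in a cell viability assay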
Description: SANGER: Inhibition of human TK10 cell growth in a cell viability assay.

SMILES	IC50 [mM]
CN(C)C(=N)NC(=N)N [METFORMIN]	> 20

tested on: KURAMOCHI; assay: cells; type: functional, cell-based, Homo sapiens; conditions: Homo sapiens, KURAMOCHI;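 further: growth inhibition of KURAMOCHI cells, read out with a cell viability assay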
Description: SANGER: Inhibition of human KURAMOCHI cell growth in a cell viability assay.

SMILES	IC50 [mM]
CN(C)C(=N)NC(=N)N [METFORMIN]	> 20

tested on: MEG-01; assay: cells; type: functional, cell-based, Homo sapiens; conditions: Homo sapiens, MEG-01;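 further: growth inhibition of MEG-01 cells, read out by a cell viability assay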
Description: SANGER: Inhibition of human MEG-01 cell growth in a cell viability assay.

SMILES	IC50 [mM]
CN(C)C(=N)NC(=N)N [METFORMIN]	8.62

tested on: NCI-H1770; assay: cells; type: functional, cell-based, Homo sapiens; conditions: Homo sapiens, NCI-H1770;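 further: growth inhibition of NCI-H1770 cells determined with a viability readout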
Description: SANGER: Inhibition of human NCI-H1770 cell growth in a cell viability assay.

SMILES	IC50 [mM]
CN(C)C(=N)NC(=N)N [METFORMIN]	4.1

tested on: NCI-H23; assay: cells; type: functional, cell-based, Homo sapiens; conditions: Homo sapiens, NCI-H23;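 further: cell viability assay measuring growth inhibition of NCI-H23 cells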
Description: SANGER: Inhibition of human NCI-H23 cell growth in a cell viability assay.

SMILES	IC50 [mM]
CN(C)C(=N)NC(=N)N [METFORMIN]	17.1

tested on: KE-37; assay: cells; type: functional, cell-based, Homo sapiens; conditions: Homo sapiens, KE-37;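 further: growth inhibition of KE-37 cells, read out with a cell viability assay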
Description: SANGER: Inhibition of human KE-37 cell growth in a cell viability assay.

SMILES	IC50 [mM]
CN(C)C(=N)NC(=N)N [METFORMIN]	7.49

tested on: NCI-H209; assay: cells; type: functional, cell-based, Homo sapiens; conditions: Homo sapiens, NCI-H209;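 further: growth inhibition of human NCI-H209 cells, measured by a cell viability assay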
Description: SANGER: Inhibition of human NCI-H209 cell growth in a cell viability assay.

SMILES	IC50 [mM]
CN(C)C(=N)NC(=N)N [METFORMIN]	0.925

tested on: SW 954; assay: cells; type: functional, cell-based, Homo sapiens; conditions: Homo sapiens, SW 954;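 further: growth inhibition of SW954 human cancer cells, read out as cell viability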
Description: SANGER: Inhibition of human SW954 cell growth in a cell viability assay.

SMILES	IC50 [mM]
CN(C)C(=N)NC(=N)N [METFORMIN]	> 20

tested on: KS-1; assay: cells; type: functional, cell-based, Homo sapiens; conditions: Homo sapiens, KS-1;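 further: growth inhibition of KS-1 cells, read out with a cell viability assay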
Description: SANGER: Inhibition of human KS-1 cell growth in a cell viability assay.

SMILES	IC50 [mM]
CN(C)C(=N)NC(=N)N [METFORMIN]	> 20

tested on: ES8; assay: cells; type: functional, cell-based, Homo sapiens; conditions: Homo sapiens, ES8;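 further: growth inhibition of human ES8 cells, read out with a cell viability assay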
Description: SANGER: Inhibition of human ES8 cell growth in a cell viability assay.

SMILES	IC50 [mM]
CN(C)C(=N)NC(=N)N [METFORMIN]	17.1

tested on: LU-134-A; assay: cells; type: functional, cell-based, Homo sapiens; conditions: Homo sapiens, LU-134-A
Description: SANGER: Inhibition of human LU-134-A cell growth in a cell viability assay.

SMILES	IC50 [mM]
CN(C)C(=N)NC(=N)N [METFORMIN]	13

tested on: HD-MY-Z; assay: cells; type: functional, cell-based, Homo sapiens; conditions: Homo sapiens, HD-MY-Z;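 further: growth inhibition of HD-MY-Z cells, read out with a cell viability assay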
Description: SANGER: Inhibition of human HD-MY-Z cell growth in a cell viability assay.

SMILES	IC50 [mM]
CN(C)C(=N)NC(=N)N [METFORMIN]	> 20

tested on: IST-MES1; assay: cells; type: functional, cell-based, Homo sapiens; conditions: Homo sapiens, IST-MES1;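 further: growth inhibition of IST-MES1 cells, measured with a cell viability assay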
Description: SANGER: Inhibition of human IST-MES1 cell growth in a cell viability assay.

SMILES	IC50 [mM]
CN(C)C(=N)NC(=N)N [METFORMIN]	> 20

tested on: HL-60; assay: cells; type: functional, cell-based, Homo sapiens; conditions: Homo sapiens, HL-60;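 further: growth inhibition of human HL-60 cells, read out with a cell viability assay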
Description: SANGER: Inhibition of human HL-60 cell growth in a cell viability assay.

SMILES	IC50 [mM]
CN(C)C(=N)NC(=N)N [METFORMIN]	> 20

tested on: MC116; assay: cells; type: functional, cell-based, Homo sapiens; conditions: Homo sapiens, MC116;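 further: growth inhibition of MC116 cells, read out with a cell viability assay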
Description: SANGER: Inhibition of human MC116 cell growth in a cell viability assay.

SMILES	IC50 [mM]
CN(C)C(=N)NC(=N)N [METFORMIN]	> 20

tested on: LU-139; assay: cells; type: functional, cell-based, Homo sapiens; conditions: Homo sapiens, LU-139
Description: SANGER: Inhibition of human LU-139 cell growth in a cell viability assay.

SMILES	IC50 [mM]
CN(C)C(=N)NC(=N)N [METFORMIN]	> 20

tested on: HCC1187; assay: cells; type: functional, cell-based, Homo sapiens; conditions: Homo sapiens, HCC1187;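 further: growth inhibition of HCC1187 cells, read out with a cell viability assay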
Description: SANGER: Inhibition of human HCC1187 cell growth in a cell viability assay.

SMILES	IC50 [mM]
CN(C)C(=N)NC(=N)N [METFORMIN]	14.2

tested on: COR-L88; assay: cells; type: functional, cell-based, Homo sapiens; conditions: Homo sapiens, COR-L88;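 further: growth inhibition of COR-L88 cells, read out with a cell viability assay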
Description: SANGER: Inhibition of human COR-L88 cell growth in a cell viability assay.

SMILES	IC50 [mM]
CN(C)C(=N)NC(=N)N [METFORMIN]	6.38

tested on: NOS-1; assay: cells; type: functional, cell-based, Homo sapiens; conditions: Homo sapiens, NOS-1;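 further: growth inhibition of the human NOS-1 cell line, read out with a cell viability assay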
Description: SANGER: Inhibition of human NOS-1 cell growth in a cell viability assay.

SMILES	IC50 [mM]
CN(C)C(=N)NC(=N)N [METFORMIN]	> 20

tested on: ES5; assay: cells; type: functional, cell-based, Homo sapiens; conditions: Homo sapiens, ES5;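 further: growth inhibition of human ES5 cells, read out by a cell viability assay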
Description: SANGER: Inhibition of human ES5 cell growth in a cell viability assay.

SMILES	IC50 [mM]
CN(C)C(=N)NC(=N)N [METFORMIN]	14.7

tested on: HCE-4; assay: cells; type: functional, cell-based, Homo sapiens; conditions: Homo sapiens, HCE-4;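 further: cell viability assay measuring inhibition of growth in the human HCE-4 cell line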
Description: SANGER: Inhibition of human HCE-4 cell growth in a cell viability assay.

SMILES	IC50 [mM]
CN(C)C(=N)NC(=N)N [METFORMIN]	11

tested on: GI-1; assay: cells; type: functional, cell-based, Homo sapiens; conditions: Homo sapiens, GI-1;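 further: growth inhibition of human GI-1 cells, measured with a cell viability readout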
Description: SANGER: Inhibition of human GI-1 cell growth in a cell viability assay.

SMILES	IC50 [mM]
CN(C)C(=N)NC(=N)N [METFORMIN]	> 20

tested on: SF-539; assay: cells; type: functional, cell-based, Homo sapiens; conditions: Homo sapiens, SF-539;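 further: Read-out is a cell viability assay, with IC50 reflecting inhibition of cell growth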
Description: SANGER: Inhibition of human SF539 cell growth in a cell viability assay.

SMILES	IC50 [mM]
CN(C)C(=N)NC(=N)N [METFORMIN]	> 20

tested on: DJM-1; assay: cells; type: functional, cell-based, Homo sapiens; conditions: Homo sapiens, DJM-1;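 further: growth inhibition of human DJM-1 cells, read out by a cell viability assay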
Description: SANGER: Inhibition of human DJM-1 cell growth in a cell viability assay.

SMILES	IC50 [mM]
CN(C)C(=N)NC(=N)N [METFORMIN]	10.2

tested on: KG-1; assay: cells; type: functional, cell-based, Homo sapiens; conditions: Homo sapiens, KG-1;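 further: growth inhibition of KG-1 cells, read out by a cell viability assay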
Description: SANGER: Inhibition of human KG-1 cell growth in a cell viability assay.

SMILES	IC50 [mM]
CN(C)C(=N)NC(=N)N [METFORMIN]	16.8

tested on: RKO; assay: cells; type: functional, cell-based, Homo sapiens; conditions: Homo sapiens, RKO;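 further: growth inhibition of human RKO cells, read out with a cell viability assay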
Description: SANGER: Inhibition of human RKO cell growth in a cell viability assay.

SMILES	IC50 [mM]
CN(C)C(=N)NC(=N)N [METFORMIN]	> 20

tested on: NTERA-2-cl-D1; assay: cells; type: functional, cell-based, Homo sapiens; conditions: Homo sapiens, NTERA-2-cl-D1;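 further: inhibition of cell growth, measured with a cell viability assay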
Description: SANGER: Inhibition of human NTERA-S-cl-D1 cell growth in a cell viability assay.

SMILES	IC50 [mM]
CN(C)C(=N)NC(=N)N [METFORMIN]	19.5

tested on: NCI-H1155; assay: cells; type: functional, cell-based, Homo sapiens; conditions: Homo sapiens, NCI-H1155;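 further: cell growth inhibition measured by a viability assay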
Description: SANGER: Inhibition of human NCI-H1155 cell growth in a cell viability assay.

SMILES	IC50 [mM]
CN(C)C(=N)NC(=N)N [METFORMIN]	17.7

tested on: NCI-H1838; assay: cells; type: functional, cell-based, Homo sapiens; conditions: Homo sapiens, NCI-H1838;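 further: growth inhibition of NCI-H1838 cells, determined with a cell viability readout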
Description: SANGER: Inhibition of human NCI-H1838 cell growth in a cell viability assay.

SMILES	IC50 [mM]
CN(C)C(=N)NC(=N)N [METFORMIN]	> 20

tested on: OS-RC-2; assay: cells; type: functional, cell-based, Homo sapiens; conditions: Homo sapiens, OS-RC-2;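 further: growth inhibition of human OS-RC-2 cells, measured by a cell viability assay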
Description: SANGER: Inhibition of human OS-RC-2 cell growth in a cell viability assay.

SMILES	IC50 [mM]
CN(C)C(=N)NC(=N)N [METFORMIN]	13

tested on: EW-16; assay: cells; type: functional, cell-based, Homo sapiens; conditions: Homo sapiens, EW-16;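 further: growth inhibition of human EW-16 cells, read out as cell viability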
Description: SANGER: Inhibition of human EW-16 cell growth in a cell viability assay.

SMILES	IC50 [mM]
CN(C)C(=N)NC(=N)N [METFORMIN]	6.78

tested on: EKVX; assay: cells; type: functional, cell-based, Homo sapiens; conditions: Homo sapiens, EKVX;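 further: growth inhibition of human EKVX cells, read out with a cell viability assay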
Description: SANGER: Inhibition of human EKVX cell growth in a cell viability assay.

SMILES	IC50 [mM]
CN(C)C(=N)NC(=N)N [METFORMIN]	> 20

tested on: CW-2; assay: cells; type: functional, cell-based, Homo sapiens; conditions: Homo sapiens, CW-2;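 further: growth inhibition of CW-2 cells, read out by a cell viability assay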
Description: SANGER: Inhibition of human CW-2 cell growth in a cell viability assay.

SMILES	IC50 [mM]
CN(C)C(=N)NC(=N)N [METFORMIN]	4.12

tested on: A388; assay: cells; type: functional, cell-based, Homo sapiens; conditions: Homo sapiens, A388;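 further: growth inhibition of human A388 cells, read out with a cell viability assay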
Description: SANGER: Inhibition of human A388 cell growth in a cell viability assay.

SMILES	IC50 [mM]
CN(C)C(=N)NC(=N)N [METFORMIN]	> 20

tested on: MLMA; assay: cells; type: functional, cell-based, Homo sapiens; conditions: Homo sapiens, MLMA;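 further: growth inhibition of MLMA cells (human), determined through a cell viability readout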
Description: SANGER: Inhibition of human MLMA cell growth in a cell viability assay.

SMILES	IC50 [mM]
CN(C)C(=N)NC(=N)N [METFORMIN]	> 20

tested on: KINGS-1; assay: cells; type: functional, cell-based, Homo sapiens; conditions: Homo sapiens, KINGS-1;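 further: cell viability assay measuring suppression of KINGS-1 cell growth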
Description: SANGER: Inhibition of human KINGS-1 cell growth in a cell viability assay.

SMILES	IC50 [mM]
CN(C)C(=N)NC(=N)N [METFORMIN]	> 20

tested on: KM-H2; assay: cells; type: functional, cell-based, Homo sapiens; conditions: Homo sapiens, KM-H2;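 further: growth inhibition of KM-H2 cells, read out by a cell viability assay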
Description: SANGER: Inhibition of human KM-H2 cell growth in a cell viability assay.

SMILES	IC50 [mM]
CN(C)C(=N)NC(=N)N [METFORMIN]	18.7

tested on: LB2241-RCC; assay: cells; type: functional, cell-based, Homo sapiens; conditions: Homo sapiens, LB2241-RCC;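 further: cell viability assay measuring how strongly the cultured human renal carcinoma line is prevented from growing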
Description: SANGER: Inhibition of human LB2241-RCC cell growth in a cell viability assay.

SMILES	IC50 [mM]
CN(C)C(=N)NC(=N)N [METFORMIN]	> 20

tested on: Mo; assay: cells; type: functional, cell-based, Homo sapiens; conditions: Homo sapiens, Mo
Description: SANGER: Inhibition of human Mo-T cell growth in a cell viability assay.

SMILES	IC50 [mM]
CN(C)C(=N)NC(=N)N [METFORMIN]	> 20

tested on: PSN1; assay: cells; type: functional, cell-based, Homo sapiens; conditions: Homo sapiens, PSN1;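 further: suppression of growth of human PSN1 cells, read out by a cell viability assay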
Description: SANGER: Inhibition of human PSN1 cell growth in a cell viability assay.

SMILES	IC50 [mM]
CN(C)C(=N)NC(=N)N [METFORMIN]	> 20

tested on: A4-Fuk; assay: cells; type: functional, cell-based, Homo sapiens; conditions: Homo sapiens, A4-Fuk;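 further: growth inhibition of A4-Fuk cells, read out by a cell viability assay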
Description: SANGER: Inhibition of human A4-Fuk cell growth in a cell viability assay.

SMILES	IC50 [mM]
CN(C)C(=N)NC(=N)N [METFORMIN]	> 20

tested on: SHP77; assay: cells; type: functional, cell-based, Homo sapiens, SHP-77; conditions: Homo sapiens, SHP77;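 further: growth inhibition of human SHP-77 cells measured by a cell viability assay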
Description: SANGER: Inhibition of human SHP-77 cell growth in a cell viability assay.

SMILES	IC50 [mM]
CN(C)C(=N)NC(=N)N [METFORMIN]	> 20

tested on: COLO-320-HSR; assay: cells; type: functional, cell-based, Homo sapiens; conditions: Homo sapiens, COLO-320-HSR;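 further: growth inhibition of COLO-320-HSR cells, determined with a cell viability assay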
Description: SANGER: Inhibition of human COLO-320-HSR cell growth in a cell viability assay.

SMILES	IC50 [mM]
CN(C)C(=N)NC(=N)N [METFORMIN]	> 20

tested on: MOLT-4; assay: cells; type: functional, cell-based, Homo sapiens; conditions: Homo sapiens, MOLT-4;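 further: growth inhibition of MOLT-4 cells, determined with a cell viability readout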
Description: SANGER: Inhibition of human MOLT-4 cell growth in a cell viability assay.

SMILES	IC50 [mM]
CN(C)C(=N)NC(=N)N [METFORMIN]	> 20
